From patent US20210315893A1 (Galapagos NV, priority 2017, published 2021)

Assays:
[1] = biological target: T1, human GPCR sphingosine 1-phosphate receptor 5 (Homo sapiens, UniProt Q9H228); assay: S1PR5 selectivity Ca2+ flux assay (antagonist readout); assay type: cell-based; details: CHO cells overexpressing human S1PR5 and Gq, agonist at EC80 (20 nM), read-out: S1P5 EC50 (nM), S1P5 antagonist EC50
T1 construct: host or cells: CHO
Description: To evaluate the selectivity of the compounds for S1PR2 over S1PR1 and S1PR5, asimilar assay set upas described above for theS1PR2 calcium flux assays waspeformed: CHO cells stably overexpressing human GPCR sphingosine 1-phosphate receptor 1 and Gq protein (Euroscreen, FAST-0197A) or overexpressing human GPCR sphingosine 1-phosphate receptorS5 and Gq protein were used (Perkin Elmer, ES-593-A). In case of the S1PR5 assay triggering was done with an SPR5 specific agonist instead of with S1P (Hobson et al., 2015).
(§1) 50 μL of Chinese hamster ovary (CHO) cells stably overexpressing human S1PR1 or S1PR5 are seeded in 384 well sterile microplates (7,500 cells/well or 10,000 cells/well respectively) and are incubated overnight at 37° C. under 5% CO2. Cells are subsequently washed twice with 25 μL/well of starvation medium (F-12 Ham's medium containing 0.1% fatty acid free bovine serum albumin (FAF BSA)). After one h starvation at 37° C., 5% CO2, cells are loaded with 25 μL of Fluo 8 dye diluted in Hank's balanced salt solution (HBSS) with 20 mM Hepes complemented with 5 mM of probenecid following the recommendations of the manufacturer (one h at 37° C., 5% CO2). Dilution series of compounds are prepared in HBSS buffer with 20 mM Hepes and 0.1% BSA (FAF). 10 μL of diluted compound is added to the cells using the FDSS/pCELL and intracellular calcium changes are measured immediately by recording fluorescence during 3 min (agonist readout). The ratio of maximal signal over background before compound injection is used to determine compound response.
After an incubation of 15 min at 37° C., following the agonist readout, the plates are transferred to the FDSS/pCELL reader. Cells are stimulated with 10 μL of EC80 concentration of S1P (6 nM for S1P1 and 20 nM for S1P5) and intracellular calcium changes are measured immediately by recording fluorescence during three min (antagonist readout). The ratio of maximal signal over background before S1P injection was used to determine the inhibitory effect ofthe compound.
(§2) Raw data obtained in each experiment (ratio of maximal signal over background for calcium mobilization assays) were normalized in percentage of activation (agonist mode) or inhibition (antagonist mode) using positive and negative experiment controls. Each individual plate quality was assessed by evaluation of Z′ factor calculated with raw data using the following equation
(§3) Y=bottom+(top−bottom)/(1+(10^(Log IC50−X)*Hillslope)) where X is the logarithm of the concentration of the compound

[2] = biological target: T2, S1PR2 (Homo sapiens, UniProt O95136); assay: S1PR2 binding assay (competition with radioactively labeled S1P, SpA); details: membranes from stable cell line over expressing S1PR2, SpA beads; read-out: S1P2 EC50 (nM), S1PR2 binding EC50
T2 construct: expressed in transfected cells
Outline: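 Scintillation proximity read-out after 2 h room-temperature incubation of compound, [3H]S1P and S1PR2-overexpressing cell membranes on WGA-coated beads. Buffer: 20 mM Tris pH 7.5, 100 mM NaCl, 10 mM MgCl2, 1 mM Na3VO4, 0.4% fatty-acid-free BSA; plates counted immediately after centrifugation.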

[3] = test system: HFL-1 cells; assay: IL8 assay in the presence of Human Serum Albumin; details: HFL1, read-out: HSA IL8 EC50
[4] = test system: HFL-1 cells; assay: IL-8 production assay (S1P induced IL-8); assay type: cell-based; details: Homo sapiens, HFL1; S1P (1 μM) induced IL-8 in HFL-1 cells, starvation medium without HSA; read-out: IL8 EC50
Outline: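 HFL-1 fibroblasts in low-serum medium were pretreated 1 h with a 10-point 1/3 series of compound starting at 30 μM (0.3% DMSO).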

[5] = biological target: T3, human GPCR sphingosine 1-phosphate receptor 2 (Homo sapiens, UniProt O95136); assay: S1PR2 antagonist Ca2+ flux assay; assay type: cell-based; details: antagonist mode, CHO-S1PR2 cells, S1P at EC80, Ca2+ fluorescence; read-out: S1P2 EC50 (nM), S1P2 antagonist EC50
T3 construct: host or cells: CHO
Outline: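 Antagonist mode: 15 min after compound addition, S1P (EC80) stimulates Fluo8-loaded, 1 h-starved CHO-S1PR2 cells, Ca2+ read over 3 min; a prior 3-min read checks compound agonism. EC50 from peak/baseline fluorescence ratio, normalised versus vehicle and S1P EC50 (antagonist) or EC100 (agonist).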

[6] = biological target: T4, human GPCR sphingosine 1-phosphate receptor 1 (Homo sapiens, UniProt P21453); assay: S1PR1 selectivity Ca2+ flux assay (antagonist readout); assay type: cell-based; details: antagonist readout, CHO cells overexpressing human S1PR1 and Gq, S1P at EC80 (6 nM); read-out: S1P1 EC50 (nM), S1P1 antagonist EC50
T4 construct: host or cells: CHO
Procedure: as §1
After an incubation of 15 min at 37° C., following the agonist readout, the plates are transferred to the FDSS/pCELL reader. […] The ratio of maximal signal over background before S1P injection was used to determine the inhibitory effect ofthe compound.
as §2, §3

T3 sequence (O95136 whole entry): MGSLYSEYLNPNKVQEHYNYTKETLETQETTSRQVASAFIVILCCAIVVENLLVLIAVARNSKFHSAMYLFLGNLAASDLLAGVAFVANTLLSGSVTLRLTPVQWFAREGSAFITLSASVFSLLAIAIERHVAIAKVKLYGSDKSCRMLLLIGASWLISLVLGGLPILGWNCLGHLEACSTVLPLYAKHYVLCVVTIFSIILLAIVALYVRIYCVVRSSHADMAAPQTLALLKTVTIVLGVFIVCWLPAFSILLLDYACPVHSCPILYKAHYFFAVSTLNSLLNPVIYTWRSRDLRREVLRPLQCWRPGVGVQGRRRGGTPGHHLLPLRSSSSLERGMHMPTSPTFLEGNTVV
T2 sequence (O95136 whole entry): as above
T4 sequence (P21453 whole entry): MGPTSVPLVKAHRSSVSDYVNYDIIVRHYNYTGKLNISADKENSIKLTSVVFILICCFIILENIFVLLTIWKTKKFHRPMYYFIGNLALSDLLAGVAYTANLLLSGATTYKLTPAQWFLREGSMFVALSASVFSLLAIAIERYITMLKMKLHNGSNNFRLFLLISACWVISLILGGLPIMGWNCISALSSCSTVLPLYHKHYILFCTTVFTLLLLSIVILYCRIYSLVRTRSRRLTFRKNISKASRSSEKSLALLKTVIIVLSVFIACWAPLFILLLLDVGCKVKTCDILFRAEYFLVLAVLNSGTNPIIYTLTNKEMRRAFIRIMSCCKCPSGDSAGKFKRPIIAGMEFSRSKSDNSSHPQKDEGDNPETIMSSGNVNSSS
T1 sequence (Q9H228 whole entry): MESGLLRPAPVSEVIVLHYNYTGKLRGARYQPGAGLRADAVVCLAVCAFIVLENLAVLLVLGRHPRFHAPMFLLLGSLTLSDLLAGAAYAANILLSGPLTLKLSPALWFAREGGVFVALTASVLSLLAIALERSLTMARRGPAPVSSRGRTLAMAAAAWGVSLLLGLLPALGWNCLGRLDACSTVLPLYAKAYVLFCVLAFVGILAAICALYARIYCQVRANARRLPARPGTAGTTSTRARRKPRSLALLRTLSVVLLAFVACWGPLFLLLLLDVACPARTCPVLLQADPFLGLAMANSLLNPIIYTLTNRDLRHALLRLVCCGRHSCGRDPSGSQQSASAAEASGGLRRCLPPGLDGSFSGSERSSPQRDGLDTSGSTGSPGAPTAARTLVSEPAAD

| SMILES | EC50 [1] | EC50 [2] | EC50 [3] | EC50 [4] | EC50 [5] | EC50 [6] |
| --- | --- | --- | --- | --- | --- | --- |
| CCOc1cc2nc(Cc3nn(CC(=O)O)c(=O)c4c(C)cccc34)[nH]c2cc1Cl [Compound 77, 2-[4-[(6-chloro-5-ethoxy-1H-benzimidazol-2-yl)methyl]-8-methyl-1-oxo-phthalazin-2-yl]acetic acid] | 6610 nM | 241 nM | 27.4 nM | 1.63 nM | 29.8 nM | – |
| CC(C(=O)O)n1nc(Cc2cn3cc(OCC4CC4)c(Cl)cc3n2)c2cc(F)ccc2c1=O (stereo not shown) [Compound 86, 2-[4-[[7-chloro-6-(cyclopropylmethoxy)imidazo[1,2-a]pyridin-2-yl]methyl]-6-fluoro-1-oxo-phthalazin-2-yl]propanoic acid] | 19800 nM | 28.7 nM | 97.1 nM | 0.911 nM | 6.33 nM | – |
| O=C(O)Cc1nn(Cc2cn3cc(OCC4CC4)c(C(F)(F)F)cc3n2)c2ccccc2c1=O [Compound 99, 2-[1-[[6-(cyclopropylmethoxy)-7-(trifluoromethyl)imidazo[1,2-a]pyridin-2-yl]methyl]-4-oxo-cinnolin-3-yl]acetic acid] | 6610 nM | 44.9 nM | 322 nM | – | 3.56 nM | – |
| CC(C(=O)O)c1nn(Cc2cn3cc(OCC4CC4)c(C(F)(F)F)cc3n2)c2ccccc2c1=O (stereo not shown) [Compound 100, 2-[1-[[6-(cyclopropylmethoxy)-7-(trifluoromethyl)imidazo[1,2-a]pyridin-2-yl]methyl]-4-oxo-cinnolin-3-yl]propanoic acid] | 19800 nM | 51.1 nM | 63.5 nM | 4.97 nM | 3.45 nM | – |
| N#Cc1cc2nc(Cn3nc(C(=O)O)c(=O)c4ccccc43)[nH]c2cc1OCC1CC1 [Compound 110, 1-[[5-cyano-6-(cyclopropylmethoxy)-1H-benzimidazol-2-yl]methyl]-4-oxo-cinnoline-3-carboxylic acid] | 2240 nM | 11.2 nM | 15.2 nM | 2.37 nM | 2.17 nM | – |
| O=C(O)Cn1nc(Cn2cc3cc(OCC4CC4)c(Br)cc3n2)c2ccccc2c1=O [Compound 111, 2-[4-[[6-bromo-5-(cyclopropylmethoxy)indazol-2-yl]methyl]-1-oxo-phthalazin-2-yl]acetic acid] | 10000 nM | 49 nM | 1080 nM | 42.2 nM | 15.2 nM | – |
| CCOc1cc2cn(Cc3nn(CC(=O)O)c(=O)c4ccccc34)nc2cc1Br [Compound 137, 2-[4-[(6-bromo-5-ethoxy-indazol-2-yl)methyl]-1-oxo-phthalazin-2-yl]acetic acid] | – | 59.4 nM | 3180 nM | 105 nM | 21 nM | ≥ 19900 nM |
| O=C(Cn1nc(Cc2nc3cc(OC(F)(F)F)c(Cl)cc3[nH]2)c2ccccc2c1=O)N[C@H]1CCC[C@H]1O [Compound 140, 2-[4-[[6-chloro-5-(trifluoromethoxy)-1H-benzimidazol-2-yl]methyl]-1-oxo-phthalazin-2-yl]-N-[(1S,2R)-2-hydroxycyclopentyl]acetamide] | – | 29.8 nM | 1110 nM | 114 nM | 13 nM | ≥ 19900 nM |
| O=C(Cn1nc(Cc2nc3cc(OC(F)(F)F)c(Cl)cc3[nH]2)c2ccccc2c1=O)N1CCOCC1 [Compound 142, 4-[[6-chloro-5-(trifluoromethoxy)-1H-benzimidazol-2-yl]methyl]-2-(2-morpholino-2-oxo-ethyl)phthalazin-1-one] | – | 103 nM | 952 nM | 191 nM | 30.1 nM | ≥ 19900 nM |
| O=C(Cn1nc(Cc2nc3cc(Cl)c(OC(F)(F)F)cc3[nH]2)c2c(c1=O)CCCC2)N1CCOCC1 [Compound 145, 4-[[5-chloro-6-(trifluoromethoxy)-1H-benzimidazol-2-yl]methyl]-2-(2-morpholino-2-oxo-ethyl)-5,6,7,8-tetrahydrophthalazin-1-one] | – | 80.2 nM | 330 nM | 89.3 nM | 42.6 nM | ≥ 19900 nM |
| O=C(Cn1nc(Cn2cc3cc(OCC4CC4)c(Cl)cc3n2)c2ccccc2c1=O)N1CCOCC1 [Compound 148, 4-[[6-chloro-5-(cyclopropylmethoxy)indazol-2-yl]methyl]-2-(2-morpholino-2-oxo-ethyl)phthalazin-1-one] | – | 32.1 nM | 785 nM | 68.9 nM | 41.5 nM | ≥ 19900 nM |
| O=C(Cn1nc(Cc2nc3cc(Cl)c(OCC4CC4)cc3[nH]2)c2ccccc2c1=O)NC1CCCC1 [Compound 150, 2-[4-[[5-chloro-6-(cyclopropylmethoxy)-1H-benzimidazol-2-yl]methyl]-1-oxo-phthalazin-2-yl]-N-cyclopentyl-acetamide] | 19800 nM | 15.6 nM | 41.4 nM | 6.14 nM | 13.7 nM | – |
| CCOc1cc2cn(Cc3nn(CC(=O)O)c(=O)c4ccccc34)nc2cc1Cl [Compound 251, 2-[4-[(6-chloro-5-ethoxy-indazol-2-yl)methyl]-1-oxo-phthalazin-2-yl]acetic acid] | – | 113 nM | 3460 nM | 111 nM | 179 nM | ≥ 19900 nM |
| O=C(O)Cn1nc(Cn2cc3cc(OCC(F)(F)F)c(Cl)cc3n2)c2ccccc2c1=O [Compound 252, 2-[4-[[6-chloro-5-(2,2,2-trifluoroethoxy)indazol-2-yl]methyl]-1-oxo-phthalazin-2-yl]acetic acid] | – | 239 nM | 16500 nM | 145 nM | 62.6 nM | ≥ 19900 nM |
| O=C(O)Cn1nc(Cn2cc3cc(OCC(F)F)c(Cl)cc3n2)c2ccccc2c1=O [Compound 253, 2-[4-[[6-chloro-5-(2,2-difluoroethoxy)indazol-2-yl)methyl]-1-oxo-phthalazin-2-yl]acetic acid] | – | 182 nM | 4130 nM | 290 nM | 184 nM | ≥ 19900 nM |
| O=C(O)Cn1nc(Cc2nc3nc(OCC4CC4)c(Cl)cc3[nH]2)c2ccccc2c1=O [Compound 257, 2-[4-[[6-chloro-5-(cyclopropylmethoxy)-1H-imidazo[4,5-b]pyridin-2-yl]methyl]-1-oxo-phthalazin-2-yl]acetic acid] | 19800 nM | 231 nM | 216 nM | 53.9 nM | 24.3 nM | – |
| CC(C(=O)O)n1nc(Cn2cc3cc(OCC4CC4)c(Cl)cc3n2)c2ccccc2c1=O (stereo not shown) [compound 3, 2-[4-[[6-chloro-5-(cyclopropyl-methoxy)indazol-2-yl]methyl]-1-oxo-phthalazin-2-yl]propanoic acid] | 19800 nM | – | 217 nM | 3.99 nM | – | – |
